Data from US4725683A, “Fluorophenoxyphenoxypropionates and derivatives thereof” (The Dow Chemical Company, priority 1985, dated 1988).

What was measured:
Test in all cases: Selective postemergence, track sprayer
Assay type in all cases: in vivo
Fall Panicum = system: Fall Panicum
Method: (§1) Representative compositions of the present invention were evaluated for the postemergence control of species of plants listed in Table A. In these evaluations, pots of the plant species listed in Table A, grown to a height of about 10 cms, were used. Aqueous spray compositions, containing various amounts of 2-[4-(2-fluoro-4-trifluoromethylphenoxy)-phenoxy]propionic acid methy ester, i.e., 125 ppm, 62.5 ppm, 31.25 ppm, 15.6 ppm, 7.8 ppm and 3.9 ppm, respectively, were applied to separate pots. The spray compositions were made by mixing the active ingredient in acetone to 1/2 the final volume, i.e., twice the final concentration. An equal amount of water was added to the active ingredient/acetone mixture wherein the water contained 0.1 percent by weight of TWEEN® 200 surfactant. The application to the plants was made to the point of run-off and was carried out with conventional spraying equipment. Other pots were sprayed with similar compositions containing no toxicant to serve as controls. Thereafter, the pots were maintained under conditions conducive for plant growth. Two weeks after treatment, the pots were examined for plant growth and evaluated on a scale of 0 to 100 where 0 represents no effect and 100 represents complete kill. The results of the examination of the treated pots are set forth below in Table A.
(§2) To further define the selective postemergence herbicidal characteristics of compounds of the present invention, chemicals were applied to additional species of grasses as listed in Table F. Chemicals evaluated were 2-[4-(4-bromo-2-fluorophenoxy)phenoxy]propionic acid methyl ester and its R isomer. Treatment conditions were similar to those described in Example A except that chemicals were delivered through a track sprayer set to deliver the appropriate dosages in 280.6 L/hectare of water containing 0.1% Tween-20 surfactant.

Giant Foxtail = system: Giant Foxtail
Method: as §1, §2

Canarygrass = system: Canarygrass
Method: as §1, §2

Broadleaf Signalgrass = system: Broadleaf Signalgrass
Method: as §1, §2

Wheat = system: Wheat
Method: as §1, §2

Annual Rye = system: Annual Rye
Method: as §1, §2

Barley = system: Barley
Method: as §1, §2

Wild Oats = system: Wild Oats
Method: as §1, §2

Wild Proso Millet = system: Wild Proso Millet
Method: as §1, §2

Cheatgrass = system: Cheatgrass
Method: as §1, §2

Tall Fescue = system: Tall Fescue
Method: as §1, §2

Barnyardgrass = system: Barnyardgrass
Method: as §1, §2

`COC(=O)[C@@H](C)Oc1ccc(Oc2ccc(Br)cc2F)cc1` [4-Bromo-(R-Enantiomer), R enantiomer of 2-[4-(4-bromo-2-fluorophenoxy)phenoxy]propionic acid methyl ester] was tested, and the “Percent Control” value (Fall Panicum; 0.00055 kgs/hectare) was 20%, the “Percent Control” value (Fall Panicum; 0.0011 kgs/hectare) was 30% and the “Percent Control” value (Fall Panicum; 0.0023 kgs/hectare) was 50%. The “Percent Control” value (Fall Panicum; 0.0045 kgs/hectare) was 80%, the “Percent Control” value (Fall Panicum; 0.009 kgs/hectare) was 80% and the “Percent Control” value (Fall Panicum; 0.018 kgs/hectare) was 100%. For the same molecule, the “Percent Control” value (Fall Panicum; 0.035 kgs/hectare) was 100%, the “Percent Control” value (Fall Panicum; 0.07 kgs/hectare) was 100% and the “Percent Control” value (Fall Panicum; 0.14 kgs/hectare) was 100%. For the same molecule, the “Percent Control” value (Fall Panicum; 0.28 kgs/hectare) was 100%, the “Percent Control” value (Giant Foxtail; 0.00055 kgs/hectare) was 80% and the “Percent Control” value (Giant Foxtail; 0.0011 kgs/hectare) was 100%. The “Percent Control” value (Giant Foxtail; 0.0023 kgs/hectare) was 100%, the “Percent Control” value (Giant Foxtail; 0.0045 kgs/hectare) was 100% and the “Percent Control” value (Giant Foxtail; 0.009 kgs/hectare) was 100%. The “Percent Control” value (Giant Foxtail; 0.018 kgs/hectare) was 100%, the “Percent Control” value (Giant Foxtail; 0.035 kgs/hectare) was 100% and the “Percent Control” value (Giant Foxtail; 0.07 kgs/hectare) was 100%. For the same molecule, the “Percent Control” value (Giant Foxtail; 0.14 kgs/hectare) was 100%, the “Percent Control” value (Giant Foxtail; 0.28 kgs/hectare) was 100% and the “Percent Control” value (Canarygrass; 0.00055 kgs/hectare) was 0%. For the same molecule, the “Percent Control” value (Canarygrass; 0.0011 kgs/hectare) was 0%, the “Percent Control” value (Canarygrass; 0.0023 kgs/hectare) was 0% and the “Percent Control” value (Canarygrass; 0.0045 kgs/hectare) was 0%. The “Percent Control” value (Canarygrass; 0.009 kgs/hectare) was 0%, the “Percent Control” value (Canarygrass; 0.018 kgs/hectare) was 0% and the “Percent Control” value (Canarygrass; 0.035 kgs/hectare) was 100%. The “Percent Control” value (Canarygrass; 0.07 kgs/hectare) was 100%, the “Percent Control” value (Canarygrass; 0.14 kgs/hectare) was 100% and the “Percent Control” value (Canarygrass; 0.28 kgs/hectare) was 100%. The “Percent Control” value (Broadleaf Signalgrass; 0.00055 kgs/hectare) was 50%, the “Percent Control” value (Broadleaf Signalgrass; 0.0011 kgs/hectare) was 50% and the “Percent Control” value (Broadleaf Signalgrass; 0.0023 kgs/hectare) was 50%. The “Percent Control” value (Broadleaf Signalgrass; 0.0045 kgs/hectare) was 90%, the “Percent Control” value (Broadleaf Signalgrass; 0.009 kgs/hectare) was 95% and the “Percent Control” value (Broadleaf Signalgrass; 0.018 kgs/hectare) was 100%. The “Percent Control” value (Broadleaf Signalgrass; 0.035 kgs/hectare) was 100%, the “Percent Control” value (Broadleaf Signalgrass; 0.07 kgs/hectare) was 100% and the “Percent Control” value (Broadleaf Signalgrass; 0.14 kgs/hectare) was 100%. For the same molecule, the “Percent Control” value (Broadleaf Signalgrass; 0.28 kgs/hectare) was 100%, the “Percent Control” value (Wheat; 0.00055 kgs/hectare) was 0% and the “Percent Control” value (Wheat; 0.0011 kgs/hectare) was 0%. The “Percent Control” value (Wheat; 0.0023 kgs/hectare) was 0%, the “Percent Control” value (Wheat; 0.0045 kgs/hectare) was 0% and the “Percent Control” value (Wheat; 0.009 kgs/hectare) was 0%. For the same molecule, the “Percent Control” value (Wheat; 0.018 kgs/hectare) was 0%, the “Percent Control” value (Wheat; 0.035 kgs/hectare) was 0% and the “Percent Control” value (Wheat; 0.07 kgs/hectare) was 0%. The “Percent Control” value (Wheat; 0.14 kgs/hectare) was 0%, the “Percent Control” value (Wheat; 0.28 kgs/hectare) was 0% and the “Percent Control” value (Annual Rye; 0.00055 kgs/hectare) was 0%. The “Percent Control” value (Annual Rye; 0.0011 kgs/hectare) was 0%, the “Percent Control” value (Annual Rye; 0.0023 kgs/hectare) was 0% and the “Percent Control” value (Annual Rye; 0.0045 kgs/hectare) was 0%. For the same molecule, the “Percent Control” value (Annual Rye; 0.009 kgs/hectare) was 20%, the “Percent Control” value (Annual Rye; 0.018 kgs/hectare) was 30% and the “Percent Control” value (Annual Rye; 0.035 kgs/hectare) was 60%. For the same molecule, the “Percent Control” value (Annual Rye; 0.07 kgs/hectare) was 70%, the “Percent Control” value (Annual Rye; 0.14 kgs/hectare) was 90% and the “Percent Control” value (Annual Rye; 0.28 kgs/hectare) was 90%. The “Percent Control” value (Barley; 0.00055 kgs/hectare) was 0%, the “Percent Control” value (Barley; 0.0011 kgs/hectare) was 0% and the “Percent Control” value (Barley; 0.0023 kgs/hectare) was 0%. The “Percent Control” value (Barley; 0.0045 kgs/hectare) was 0%, the “Percent Control” value (Barley; 0.009 kgs/hectare) was 0% and the “Percent Control” value (Barley; 0.018 kgs/hectare) was 0%. The “Percent Control” value (Barley; 0.035 kgs/hectare) was 0%, the “Percent Control” value (Barley; 0.07 kgs/hectare) was 0% and the “Percent Control” value (Barley; 0.14 kgs/hectare) was 0%. For the same molecule, the “Percent Control” value (Barley; 0.28 kgs/hectare) was 0%, the “Percent Control” value (Wild Oats; 0.00055 kgs/hectare) was 0% and the “Percent Control” value (Wild Oats; 0.0011 kgs/hectare) was 0%. For the same molecule, the “Percent Control” value (Wild Oats; 0.0023 kgs/hectare) was 0%, the “Percent Control” value (Wild Oats; 0.0045 kgs/hectare) was 0% and the “Percent Control” value (Wild Oats; 0.009 kgs/hectare) was 20%. The “Percent Control” value (Wild Oats; 0.018 kgs/hectare) was 20%, the “Percent Control” value (Wild Oats; 0.035 kgs/hectare) was 40% and the “Percent Control” value (Wild Oats; 0.07 kgs/hectare) was 70%. For the same molecule, the “Percent Control” value (Wild Oats; 0.14 kgs/hectare) was 70%, the “Percent Control” value (Wild Oats; 0.28 kgs/hectare) was 95% and the “Percent Control” value (Wild Proso Millet; 0.00055 kgs/hectare) was 30%. The “Percent Control” value (Wild Proso Millet; 0.0011 kgs/hectare) was 30%, the “Percent Control” value (Wild Proso Millet; 0.0023 kgs/hectare) was 80% and the “Percent Control” value (Wild Proso Millet; 0.0045 kgs/hectare) was 100%. For the same molecule, the “Percent Control” value (Wild Proso Millet; 0.009 kgs/hectare) was 95%, the “Percent Control” value (Wild Proso Millet; 0.018 kgs/hectare) was 100% and the “Percent Control” value (Wild Proso Millet; 0.035 kgs/hectare) was 100%. The “Percent Control” value (Wild Proso Millet; 0.07 kgs/hectare) was 100%, the “Percent Control” value (Wild Proso Millet; 0.14 kgs/hectare) was 100% and the “Percent Control” value (Wild Proso Millet; 0.28 kgs/hectare) was 100%. For the same molecule, the “Percent Control” value (Cheatgrass; 0.00055 kgs/hectare) was 0%, the “Percent Control” value (Cheatgrass; 0.0011 kgs/hectare) was 0% and the “Percent Control” value (Cheatgrass; 0.0023 kgs/hectare) was 0%. The “Percent Control” value (Cheatgrass; 0.0045 kgs/hectare) was 0%, the “Percent Control” value (Cheatgrass; 0.009 kgs/hectare) was 0% and the “Percent Control” value (Cheatgrass; 0.018 kgs/hectare) was 0%. For the same molecule, the “Percent Control” value (Cheatgrass; 0.035 kgs/hectare) was 0%, the “Percent Control” value (Cheatgrass; 0.07 kgs/hectare) was 0% and the “Percent Control” value (Cheatgrass; 0.14 kgs/hectare) was 0%. The “Percent Control” value (Cheatgrass; 0.28 kgs/hectare) was 0%, the “Percent Control” value (Tall Fescue; 0.00055 kgs/hectare) was 0% and the “Percent Control” value (Tall Fescue; 0.0011 kgs/hectare) was 0%. For the same molecule, the “Percent Control” value (Tall Fescue; 0.0023 kgs/hectare) was 0%, the “Percent Control” value (Tall Fescue; 0.0045 kgs/hectare) was 20% and the “Percent Control” value (Tall Fescue; 0.009 kgs/hectare) was 50%. The “Percent Control” value (Tall Fescue; 0.018 kgs/hectare) was 70%, the “Percent Control” value (Tall Fescue; 0.035 kgs/hectare) was 80% and the “Percent Control” value (Tall Fescue; 0.07 kgs/hectare) was 90%. For the same molecule, the “Percent Control” value (Tall Fescue; 0.14 kgs/hectare) was 90%, the “Percent Control” value (Tall Fescue; 0.28 kgs/hectare) was 90% and the “Percent Control” value (Barnyardgrass; 0.00055 kgs/hectare) was 90%. For the same molecule, the “Percent Control” value (Barnyardgrass; 0.0011 kgs/hectare) was 80%, the “Percent Control” value (Barnyardgrass; 0.0023 kgs/hectare) was 100% and the “Percent Control” value (Barnyardgrass; 0.0045 kgs/hectare) was 100%. The “Percent Control” value (Barnyardgrass; 0.009 kgs/hectare) was 100%, the “Percent Control” value (Barnyardgrass; 0.018 kgs/hectare) was 100% and the “Percent Control” value (Barnyardgrass; 0.035 kgs/hectare) was 100%. The “Percent Control” value (Barnyardgrass; 0.07 kgs/hectare) was 100%, the “Percent Control” value (Barnyardgrass; 0.14 kgs/hectare) was 100% and the “Percent Control” value (Barnyardgrass; 0.28 kgs/hectare) was 100%.
